According to patent publication US11666558B2, “Methods of treating intraocular pressure with activators of Tie-2” (EyePoint Pharmaceuticals, Inc., priority 2015, dated 2023):
Like-named read-outs stand apart in the source and are kept apart here.

Experiment: Ocular tissue concentrations (aqueous humor, vitreous humor, iris, retina, choroid, cornea) after topical ocular, subcutaneous and intravitreal administration
Format: in vivo, New Zealand White rabbits
Conditions: New Zealand White, rabbit; for concentration at 6 h / concentration at 24 h / concentration at 48 h / concentration at 72 h: other: intravitreal, 2.5 mg/eye
Experimental: To measure the concentration of Compound 1 in plasma and ocular tissues following topical ocular, subcutaneous, and intravitreal administration, New Zealand White rabbits were administered Compound 1, and plasma and ocular samples were collected at pre-determined time points. Compound 1 formulations were prepared fresh on each day of dosing.
Ocular tissue samples from both eyes of each animal were collected and weights were recorded. Plasma and ocular tissue sample concentrations of Compound 1 were determined by LC-MS/MS.
New Zealand White rabbits weighing 2.5 to 3.5 kg were used on this study. Rabbits were housed one per cage. Animals were not fasted and only healthy animals with no ocular illness were used. Two rabbits per group were sacrificed at each of four ocular tissue sampling time points for a total of eight rabbits per group.
Animals were anesthetized for ocular (topical) and intravitreal dosing following the 12IA7 IACUC protocol. Each rabbit received a bolus dose of test formulation either via topical ocular administration 3 times daily on Days 1 and 2 (at 0, 6, and 12 hours), and once on Day 3 (at 0 hours) into both eyes; via intravitreal administration into both eyes once on Day 1 (at 0 hours); or via subcutaneous administration 2 times daily on Days 1 and 2 (at 0 and 8 hours) and once daily on Day 3 (at 0 hours). Doses were given within an approximately 1 hour window each day where applicable.
On Day 1, for intravitreal administration, or on Day 3, for topical ocular and subcutaneous administration, at the appropriate ocular tissue collection time points, animals were euthanized and both eyes were enucleated immediately. Following enucleation, each eye was rinsed with phosphate-buffered saline. Ocular tissue samples from both eyes of each animal were collected at predetermined time points and weights were recorded. All the samples were frozen immediately on dry ice, and stored at −60° C. to −80° C. pending bioanalysis.
An LC-MS/MS method was developed for the determination of Compound 1 in rabbit aqueous tissues (plasma, aqueous and vitreous humor) and solid ocular tissue samples. A pre-study standard curve was analyzed to determine the specificity, range, and lower limit of quantitation of the method. Plasma and tissue homogenate study samples were extracted and analyzed. All the samples were treated identically to the standards.
One eight-point standard curve was used in each analytical batch. To be accepted, each batch must have had at least five of eight standards with accuracy within ±20% of nominal, except at the lower limit of quantification (LLOQ), where ±25% was acceptable.
Concentration versus time data is plotted in FIGS. 3-16. All data are expressed as ng/g of the free drug. Samples that were below the limit of quantitation (0.2 ng/mL) were not used in the calculation of averages.

[1] = iris homogenate, Iris homogenate, OD, sodium salt, intravitreal 2.5 mg/eye, Group 4, read-out: Iris Conc. (ng/mL) OD
[2] = iris homogenate, Iris homogenate, OS, sodium salt, intravitreal 2.5 mg/eye, Group 4, read-out: Iris Conc. (ng/mL) OS
[3] = iris homogenate, Iris homogenate, left eye, intravitreal 2.5 mg/eye (group 5), individual animals, read-out: Conc. (ng/mL) OS
[4] = iris homogenate, Iris homogenate, right eye, intravitreal 2.5 mg/eye (group 5), individual animals, read-out: Conc. (ng/mL) OD
[5] = iris homogenate, subcutaneous, 5 mg/kg/dose, Iris homogenate, OD, sodium salt, subcutaneous 5 mg/kg/dose, Group 2, read-out: Iris Conc. (ng/mL) OD
[6] = iris homogenate, subcutaneous, 5 mg/kg/dose, Iris homogenate, OS, free acid, subcutaneous 5 mg/kg/dose, Group 3, read-out: Iris Conc. (ng/mL) OS
[7] = iris homogenate, subcutaneous, 5 mg/kg/dose, Iris homogenate, OS, sodium salt, subcutaneous 5 mg/kg/dose, Group 2, read-out: Iris Conc. (ng/mL) OS
[8] = iris homogenate, subcutaneous, 5 mg/kg/dose, TABLE 16: Iris homogenate, OS, free acid, subcutaneous 5 mg/kg/dose, Group 3, read-out: Iris Conc. (ng/mL) OS
[9] = iris, Iris, OD, sodium salt, intravitreal 2.5 mg/eye, Group 4, read-out: Iris Conc. (ng/g) OD
[10] = iris, Iris, OS, sodium salt, intravitreal 2.5 mg/eye, Group 4, read-out: Iris Conc. (ng/g) OS
[11] = iris, Iris, average, intravitreal 2.5 mg/eye (group 5), read-out: Avg.
[12] = iris, Iris, left eye, intravitreal 2.5 mg/eye (group 5), individual animals, read-out: Conc. (ng/g) OS
[13] = iris, Iris, right eye, intravitreal 2.5 mg/eye (group 5), individual animals, read-out: Conc. (ng/g) OD
[14] = iris, Iris, sodium salt, intravitreal 2.5 mg/eye, Group 4, read-out: Iris Avg.
[15] = iris, subcutaneous, 5 mg/kg/dose, Iris, OD, sodium salt, subcutaneous 5 mg/kg/dose, Group 2, read-out: Iris Conc. (ng/g) OD
[16] = iris, subcutaneous, 5 mg/kg/dose, Iris, OS, free acid, subcutaneous 5 mg/kg/dose, Group 3, read-out: Iris Conc. (ng/g) OS
[17] = iris, subcutaneous, 5 mg/kg/dose, Iris, free acid, subcutaneous 5 mg/kg/dose, Group 3, read-out: Iris Average
[18] = iris, subcutaneous, 5 mg/kg/dose, Iris, sodium salt, subcutaneous 5 mg/kg/dose, Group 2, read-out: Iris Average
[19] = iris, subcutaneous, 5 mg/kg/dose, Iris, OS, sodium salt, subcutaneous 5 mg/kg/dose, Group 2, read-out: Iris Conc. (ng/g) OS
[20] = iris, subcutaneous, 5 mg/kg/dose, TABLE 16: Iris, OS, free acid, subcutaneous 5 mg/kg/dose, Group 3, read-out: Iris Conc. (ng/g) OS
[21] = iris, subcutaneous, 5 mg/kg/dose, TABLE 16: Iris, free acid, subcutaneous 5 mg/kg/dose, Group 3, read-out: Iris Average

- concentration at 4 h (cornea, subcutaneous, 5 mg/kg/dose, TABLE 16: Cornea, OD, free acid, subcutaneous 5 mg/kg/dose, Group 3, read-out: Cornea Conc. (ng/g) OD): 10.4 ng/g
- concentration at 4 h (cornea, subcutaneous, 5 mg/kg/dose, TABLE 16: Cornea, free acid, subcutaneous 5 mg/kg/dose, Group 3, read-out: Cornea Average): 15.8 ng/g
- concentration at 6 h [1]: 35500 ng/mL
- concentration at 6 h [2]: 34000 ng/mL
- concentration at 6 h [3]: 13800 ng/mL
- concentration at 6 h [4]: 18500 ng/mL
- concentration at 24 h [1]: 6890 ng/mL
- concentration at 24 h [3]: 14100 ng/mL
- concentration at 24 h [4]: 7670 ng/mL
- concentration at 48 h [1]: 2380 ng/mL
- concentration at 48 h [2]: 1960 ng/mL
- concentration at 48 h [3]: 1950 ng/mL
- concentration at 48 h [4]: 1010 ng/mL
- concentration at 72 h [1]: 169 ng/mL
- concentration at 72 h [3]: 1800 ng/mL
- concentration at 72 h [4]: 279 ng/mL
- concentration at 0.5 h [5]: 27.7 ng/mL
- concentration at 0.5 h [6]: 4.27 ng/mL
- concentration at 1 h [5]: 11.4 ng/mL
- concentration at 1 h [6]: 4.33 ng/mL
- concentration at 1 h [7]: 8.87 ng/mL
- concentration at 2 h (iris homogenate, subcutaneous, 5 mg/kg/dose, Iris homogenate, 2 hr, OD, free acid, subcutaneous 5 mg/kg/dose, Group 3, read-out: Iris Conc. (ng/mL) OD): 2.77 ng/mL
- concentration at 2 h (iris homogenate, subcutaneous, 5 mg/kg/dose, Iris homogenate, 2 hr, OS, free acid, subcutaneous 5 mg/kg/dose, Group 3, read-out: Iris Conc. (ng/mL) OS): 2.68 ng/mL
- concentration at 4 h (iris homogenate, subcutaneous, 5 mg/kg/dose, Iris homogenate, OD, free acid, subcutaneous 5 mg/kg/dose, Group 3, read-out: Iris Conc. (ng/mL) OD): 2.41 ng/mL
- concentration at 4 hr [5]: 2.12 ng/mL
- concentration at 4 h [6]: 1.54 ng/mL
- concentration at 4 hr [7]: 3.1 ng/mL
- concentration at 0.5 h [8]: 4.27 ng/mL
- concentration at 1 h [8]: 4.33 ng/mL
- concentration at 2 h (iris homogenate, subcutaneous, 5 mg/kg/dose, TABLE 16: Iris homogenate, 2 hr, OD, free acid, subcutaneous 5 mg/kg/dose, Group 3, read-out: Iris Conc. (ng/mL) OD): 2.77 ng/mL
- concentration at 2 h (iris homogenate, subcutaneous, 5 mg/kg/dose, TABLE 16: Iris homogenate, 2 hr, OS, free acid, subcutaneous 5 mg/kg/dose, Group 3, read-out: Iris Conc. (ng/mL) OS): 2.68 ng/mL
- concentration at 4 h (iris homogenate, subcutaneous, 5 mg/kg/dose, TABLE 16: Iris homogenate, OD, free acid, subcutaneous 5 mg/kg/dose, Group 3, read-out: Iris Conc. (ng/mL) OD): 2.41 ng/mL
- concentration at 4 h [8]: 1.54 ng/mL
- concentration at 6 h [9]: 390000 ng/g
- concentration at 6 h [10]: 374000 ng/g
- concentration at 6 h [11]: 211000 ng/g
- concentration at 6 h [12]: 152000 ng/g
- concentration at 6 h [13]: 204000 ng/g
- concentration at 6 h [14]: 352000 ng/g
- concentration at 24 h [9]: 75800 ng/g
- concentration at 24 h [11]: 113000 ng/g
- concentration at 24 h [12]: 155000 ng/g
- concentration at 24 h [13]: 84400 ng/g
- concentration at 24 h [14]: 141000 ng/g
- concentration at 48 h [9]: 26200 ng/g
- concentration at 48 h [10]: 21600 ng/g
- concentration at 48 h [11]: 16800 ng/g
- concentration at 48 h [12]: 21400 ng/g
- concentration at 48 h [13]: 11100 ng/g
- concentration at 48 h [14]: 24600 ng/g
- concentration at 72 h [9]: 1860 ng/g
- concentration at 72 h [11]: 10300 ng/g
- concentration at 72 h [12]: 19800 ng/g
- concentration at 72 h [13]: 3070 ng/g
- concentration at 72 h [14]: 1550 ng/g
- concentration at 0.5 h [15]: 305 ng/g
- concentration at 0.5 h [16]: 47 ng/g
- concentration at 0.5 h [17]: 50.3 ng/g
- concentration at 0.5 h [18]: 459 ng/g
- concentration at 1 h [15]: 125 ng/g
- concentration at 1 h [16]: 47.6 ng/g
- concentration at 1 h [19]: 97.6 ng/g
- concentration at 1 h [17]: 58 ng/g
- concentration at 1 h [18]: 94.7 ng/g
- concentration at 2 h (iris, subcutaneous, 5 mg/kg/dose, Iris, 2 hr, OD, free acid, subcutaneous 5 mg/kg/dose, Group 3, read-out: Iris Conc. (ng/g) OD): 30.5 ng/g
- concentration at 2 h (iris, subcutaneous, 5 mg/kg/dose, Iris, 2 hr, OS, free acid, subcutaneous 5 mg/kg/dose, Group 3, read-out: Iris Conc. (ng/g) OS): 29.5 ng/g
- concentration at 2 h (iris, subcutaneous, 5 mg/kg/dose, Iris, 2 hr, free acid, subcutaneous 5 mg/kg/dose, Group 3, read-out: Iris Average): 27.6 ng/g
- concentration at 2 hr (iris, subcutaneous, 5 mg/kg/dose, Iris, 2 hr, sodium salt, subcutaneous 5 mg/kg/dose, Group 2, read-out: Iris Average): 29.7 ng/g
- concentration at 4 h (iris, subcutaneous, 5 mg/kg/dose, Iris, OD, free acid, subcutaneous 5 mg/kg/dose, Group 3, read-out: Iris Conc. (ng/g) OD): 26.5 ng/g
- concentration at 4 hr [15]: 33.8 ng/g
- concentration at 4 h [16]: 16.9 ng/g
- concentration at 4 hr [19]: 34.1 ng/g
- concentration at 4 h [17]: 17.5 ng/g
- concentration at 4 hr [18]: 30.4 ng/g
- concentration at 0.5 h [20]: 47 ng/g
- concentration at 0.5 h [21]: 50.3 ng/g
- concentration at 1 h [20]: 47.6 ng/g
- concentration at 1 h [21]: 58 ng/g
SMILES: COC(=O)N[C@@H](Cc1ccccc1)C(=O)N[C@@H](Cc1ccc(NS(=O)(=O)O)cc1)c1csc(-c2cccs2)n1 [Compound 1]
